{
  "source": "paper PMC6213309",
  "about": "“Antibacterial Activity and Mechanism of Action of Bovine Lactoferricin Derivatives with Symmetrical Amino Acid Sequences” (International Journal of Molecular Sciences, 2018)",
  "key": {"[1]": {"tested_on": "E. coli ATCC 25922", "assay_type": "cell-based", "procedure": "(§2) The antimicrobial activity of the peptides were defined as the minimum inhibitory concentrations (MIC) according to the Clinical and Laboratory Standards Institute broth microdilution method as described previously [47]. Briefly, 50 μL two-fold serial dilutions of peptides (with final concentrations ranging from 0 μM to 256 μM) and 50 μL bacterial fluids diluted with MHB were added to 96-well microtiter plates. The plates were then incubated at 37 °C for 18 h."}, "[2]": {"tested_on": "E. coli UB 1005", "assay_type": "cell-based", "procedure": "as §2"}, "[3]": {"tested_on": "Salmonella typhimurium C 7731", "assay_type": "cell-based", "procedure": "as §2"}, "[4]": {"tested_on": "Salmonella typhimurium ATCC 14028", "assay_type": "cell-based", "procedure": "as §2"}, "[5]": {"tested_on": "Salmonella pullorum C 7913", "assay_type": "cell-based", "details": "18 h"}, "[6]": {"tested_on": "Salmonella enterica subsp. CMCC 50071", "details": "MHB, 37 °C, 18 h, peptides 0-256 μM, triplicate samples", "protocol": "(§1) The antimicrobial activity of the peptides were defined as the minimum inhibitory concentrations (MIC) according to the Clinical and Laboratory Standards Institute broth microdilution method as described previously. Briefly, 50 μL two-fold serial dilutions of peptides (with final concentrations ranging from 0 μM to 256 μM) and 50 μL bacterial fluids diluted with MHB were added to 96-well microtiter plates. The plates were then incubated at 37 °C for 18 h."}, "[7]": {"tested_on": "S. aureus ATCC 29213", "assay_type": "cell-based"}, "[8]": {"tested_on": "S. aureus ATCC 25923", "assay_type": "cell-based"}, "[9]": {"tested_on": "S. epidermidis ATCC 12228", "assay_type": "cell-based", "procedure": "as §2"}, "[10]": {"tested_on": "E. coli ATCC25922", "details": "for MIC after Trypsin: peptide treated with 1 mg/mL trypsin", "protocol": "as §1\nWe assessed the salt stability, thermal stability, and enzymatic stability of the AMPs. Briefly, E. coli ATCC25922 was selected as the test bacterium. The control group was untreated peptides. Different concentrations of salts (150 mM NaCl, 4.5 mM KCl, 6 μM NH4Cl, 1 mM MgCl2, […], 8 mM […], 2.5 mM CaCl2, and 4 mM FeCl3) were added to the incubation buffer to examine the effect of each salt on the antimicrobial activities of the peptides. AMPs were treated for 1 h at 100 °C to test the thermal stability. AMPs were also treated with trypsin, pepsin, papain, and protease K at a concentration of 1 mg/mL for 1 h at 37 °C to test enzyme stability."}, "[11]": {"tested_on": "human red blood cells (hRBCs)", "experiment": "Hemolytic activity", "assay_type": "cell-based", "details": "lowest concentration causing 5% hemolysis of hRBCs; 1% hRBCs in PBS pH 7.2, 37 °C, 1 h, absorbance 570 nm", "protocol": "Hemolytic activity against human red blood cells (hRBCs) was determined as described before. Briefly, 1 mL of fresh hRBCs was centrifuged in PBS (pH 7.2). After washing two times, the hRBCs were resuspended with PBS at a concentration of 1%. Next, 50 μL of the hRBCs solution was added to 50 μL PBS containing two-fold serial dilutions of peptides in each well. The plates were then incubated at 37 °C for 1 h and centrifuged at 1000× g for 5 min. The supernatants were removed, and the release of hemoglobin was determined by measuring the absorbance at 570 nm using a microplate reader (Bio-Rad, Hercules CA, USA). Erythrocyte suspensions in PBS and 0.1% Triton X-100 were used as negative and positive controls, respectively. Melittin was the control peptide."}, "[12]": {"details": "E. coli ATCC25922, untreated peptides"}},
  "note": "Like-named read-outs stand apart in the source and are kept apart here. Ends that are not written are not given here.",
  "data": [
    {"substance": "FPRRWQWRRPF-NH2 [FP-PF]", "values": [
      {"measurement": "MIC", "setting": "[1]; ATCC25922, 18 h", "value": 4, "unit": "µM"},
      {"measurement": "MIC", "setting": "[2]; UB 1005, 18 h", "value": 8, "unit": "µM"},
      {"measurement": "MIC", "setting": "[3]; murium C 7731, 18 h", "value": 64, "unit": "µM"},
      {"measurement": "MIC", "setting": "[4]; ATCC 14028, 18 h", "value": 32, "unit": "µM"},
      {"measurement": "MIC", "setting": "[5]", "value": 16, "unit": "µM"},
      {"measurement": "MIC", "setting": "[6]", "value": 128, "unit": "µM"},
      {"measurement": "MIC", "setting": "[7]; ATCC 29213, 18 h", "value": 32, "unit": "µM"},
      {"measurement": "MIC", "setting": "[8]; ATCC 25923, 18 h", "value": 32, "unit": "µM"},
      {"measurement": "MIC", "setting": "[9]; ATCC 12228, 18 h", "value": 64, "unit": "µM"},
      {"measurement": "MIC after Papain", "setting": "[10]; ATCC25922, 1 h", "value": 8, "unit": "µM"},
      {"measurement": "MIC after Pepsin", "setting": "[10]; ATCC25922, 1 h", "value": 16, "unit": "µM"},
      {"measurement": "MIC after Protease K", "setting": "[10]; ATCC25922, 1 h", "value": 4, "unit": "µM"},
      {"measurement": "MIC following heating at 100 °C", "setting": "[10]; ATCC25922, 1 h", "value": 8, "unit": "µM"},
      {"measurement": "MIC in the presence of Ca2+", "setting": "[10]; ATCC25922, 18 h", "value": 8, "unit": "µM"},
      {"measurement": "MIC in the presence of Fe3+", "setting": "[10]; ATCC25922, 18 h", "value": 4, "unit": "µM"},
      {"measurement": "MIC in the presence of K+", "setting": "[10]; ATCC25922, 18 h", "value": 8, "unit": "µM"},
      {"measurement": "MIC in the presence of Mg2+", "setting": "[10]; ATCC25922, 18 h", "value": 8, "unit": "µM"},
      {"measurement": "MIC in the presence of NH4+", "setting": "[10]; ATCC25922, 18 h", "value": 8, "unit": "µM"},
      {"measurement": "MIC in the presence of Na+", "setting": "[10]; ATCC25922, 18 h", "value": 64, "unit": "µM"},
      {"measurement": "MIC in the presence of Zn2+", "setting": "[10]; ATCC25922, 18 h", "value": 8, "unit": "µM"},
      {"measurement": "MIC, Control (enzymatic stability)", "setting": "[10]; ATCC25922, 18 h", "value": 4, "unit": "µM"},
      {"measurement": "MIC, Control (salt stability)", "setting": "[10]; ATCC25922, 18 h", "value": 4, "unit": "µM"},
      {"measurement": "MIC, Control (thermal stability)", "setting": "[10]; ATCC25922, 18 h", "value": 4, "unit": "µM"},
      {"measurement": "MIC after Trypsin", "setting": "[10]; E. coli ATCC25922, 1 h, 37 °C", "value": 128, "unit": "µM"}
    ]},
    {"substance": "KCRRWQWRMKK-NH2 [LFcinB18–28, reference compound]", "values": [
      {"measurement": "MIC", "setting": "[1]; E. coli ATCC 25922, MHB, 37 °C, 18 h, peptides 0-256 μM, triplicate samples", "value": 16, "unit": "µM"},
      {"measurement": "MIC", "setting": "[2]; E. coli UB 1005, MHB, 37 °C, 18 h, peptides 0-256 μM, triplicate samples", "value": 128, "unit": "µM"},
      {"measurement": "MIC", "setting": "[3]; Salmonella typhimurium C 7731, MHB, 37 °C, 18 h, peptides 0-256 μM, triplicate samples", "value": ">128", "unit": "µM"},
      {"measurement": "MIC", "setting": "[4]; Salmonella typhimurium ATCC 14028, MHB, 37 °C, 18 h, peptides 0-256 μM, triplicate samples", "value": ">128", "unit": "µM"},
      {"measurement": "MIC", "setting": "[5]; Salmonella pullorum C 7913, MHB, 37 °C, peptides 0-256 μM, triplicate samples", "value": ">128", "unit": "µM"},
      {"measurement": "MIC", "setting": "[6]", "value": ">128", "unit": "µM"},
      {"measurement": "MIC", "setting": "[7]; S. aureus ATCC 29213, MHB, 37 °C, 18 h, peptides 0-256 μM, triplicate samples", "value": ">128", "unit": "µM"},
      {"measurement": "MIC", "setting": "[8]; S. aureus ATCC 25923, MHB, 37 °C, 18 h, peptides 0-256 μM, triplicate samples", "value": 128, "unit": "µM"},
      {"measurement": "MIC", "setting": "[9]; S. epidermidis ATCC 12228, MHB, 37 °C, 18 h, peptides 0-256 μM, triplicate samples", "value": ">128", "unit": "µM"},
      {"measurement": "MHC (minimum hemolytic concentration)", "setting": "[11]", "value": ">256", "unit": "µM"},
      {"measurement": "MIC in the presence of NH4+", "setting": "[10]; E. coli ATCC25922, 6 μM NH4Cl", "value": 8, "unit": "µM"},
      {"measurement": "MIC in the presence of Mg2+", "setting": "[10]; E. coli ATCC25922, 1 mM MgCl2", "value": 16, "unit": "µM"},
      {"measurement": "MIC in the presence of Ca2+", "setting": "[10]; E. coli ATCC25922, 2.5 mM CaCl2", "value": 16, "unit": "µM"},
      {"measurement": "MIC in the presence of Fe3+", "setting": "[10]; E. coli ATCC25922, 4 mM FeCl3", "value": 4, "unit": "µM"},
      {"measurement": "MIC in the presence of K+", "setting": "[10]; E. coli ATCC25922, 4.5 mM KCl", "value": 16, "unit": "µM"},
      {"measurement": "MIC in the presence of Zn2+", "setting": "[10]; E. coli ATCC25922, 8 mM ZnCl3", "value": 8, "unit": "µM"},
      {"measurement": "MIC in the presence of Na+", "setting": "[10]; E. coli ATCC25922, 150 mM NaCl", "value": 16, "unit": "µM"},
      {"measurement": "MIC following heating at 100 °C", "setting": "[10]; E. coli ATCC25922, peptide treated 1 h at 100 °C", "value": 16, "unit": "µM"},
      {"measurement": "MIC after Papain", "setting": "[10]; E. coli ATCC25922, peptide treated with 1 mg/mL papain, 1 h, 37 °C", "value": ">128", "unit": "µM"},
      {"measurement": "MIC after Pepsin", "setting": "[10]; E. coli ATCC25922, peptide treated with 1 mg/mL pepsin, 1 h, 37 °C", "value": ">128", "unit": "µM"},
      {"measurement": "MIC after Protease K", "setting": "[10]; E. coli ATCC25922, peptide treated with 1 mg/mL protease K, 1 h, 37 °C", "value": ">128", "unit": "µM"},
      {"measurement": "MIC after Trypsin", "setting": "[10]; E. coli ATCC25922, 1 h, 37 °C", "value": ">128", "unit": "µM"},
      {"measurement": "MIC, Control (enzymatic stability)", "setting": "[10]; [12]", "value": 16, "unit": "µM"},
      {"measurement": "MIC, Control (thermal stability)", "setting": "[10]; [12]", "value": 16, "unit": "µM"},
      {"measurement": "MIC, Control (salt stability)", "setting": "[10]; E. coli ATCC25922, untreated peptides, no added salt", "value": 16, "unit": "µM"}
    ]}
  ]
}
